In PubChem BioAssay (NCI):
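Protocol summary: plate cells (96-well), add compound at 5 concentrations, incubate 48 h, interpolate endpoints linearly. GI50 = concentration required for 50% inhibition of growth. TGI is the concentration that stops growth completely.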

How the values were obtained:
Assay in all cases: growth of human tumour cells (NCI), 48 h
A498 renal = system: A498 renal
HOP-62 NSCLC = system: HOP-62 NSCLC
HS 578T breast = system: HS 578T breast
KM12 colon = system: KM12 colon
MCF7 breast = system: MCF7 breast
NCI/ADR-RES ovarian = system: NCI/ADR-RES ovarian
OVCAR-3 ovarian = system: OVCAR-3 ovarian
OVCAR-5 ovarian = system: OVCAR-5 ovarian
SF-295 CNS = system: SF-295 CNS
T-47D breast = system: T-47D breast

Row | SMILES | GI50 (A498 renal) | TGI (A498 renal) | GI50 (HOP-62 NSCLC) | TGI (HOP-62 NSCLC) | GI50 (HS 578T breast) | TGI (HS 578T breast) | GI50 (KM12 colon) | TGI (KM12 colon) | GI50 (MCF7 breast) | TGI (MCF7 breast) | GI50 (NCI/ADR-RES ovarian) | TGI (NCI/ADR-RES ovarian) | GI50 (OVCAR-3 ovarian) | TGI (OVCAR-3 ovarian) | GI50 (OVCAR-5 ovarian) | TGI (OVCAR-5 ovarian) | GI50 (SF-295 CNS) | TGI (SF-295 CNS) | GI50 (T-47D breast) | TGI (T-47D breast)
1 | COC(=O)[C@H](Cc1ccccc1)NC(=O)[C@@H](OC)[C@@H]1Cc2cc3cc(OC4CC(OC5CC(O)C(O)C(C)O5)C(O)C(C)O4)c(C)c(O)c3c(O)c2C(=O)[C@H]1OC1CC(OC2CC(OC3CC(C)(O)C(O)C(C)O3)C(O)C(C)O2)C(O)C(C)O1 (stereo not given in full) | 24 nM | 0.0626 µM | 0.0147 µM | 11.4 µM | 0.0131 µM | 0.348 µM | 0.0148 µM | 0.12 µM | 5.34 nM | 0.241 µM | 4.22 µM | > 14.3 µM | 0.0142 µM | 0.0793 µM | 0.0396 µM | > 14.3 µM | 0.025 µM | 1.7 µM | 19 nM | > 14.3 µM
2 | C#CC#CC#CC#CC#CC#CC#CC#CCC1OC[C@H](COC(=O)O[C@@H](C(=O)O[C@H]2C[C@@]3(O)[C@@H](OC(=O)c4ccccc4)[C@@H]4[C@]5(OC(C)=O)CO[C@@H]5C[C@H](O)[C@@]4(C)C(=O)[C@H](OC(C)=O)C(=C2C)C3(C)C)[C@@H](NC(=O)c2ccccc2)c2ccccc2)O1 (stereo not given in full) | 494 nM | > 8.14 µM | 1.37 µM | > 33.3 µM | 0.297 µM | > 17.3 µM | 0.196 µM | > 33.3 µM | 92.1 nM | > 33.3 µM | > 33.3 µM | > 33.3 µM | 0.17 µM | > 33.3 µM | 0.554 µM | > 33.3 µM | 1.01 µM | > 27.5 µM | 516 nM | > 33.3 µM
3 | CC1(C)CC[C@]2(C(=O)O)CC[C@]3(C)[C@H](CC[C@@H]4[C@@]5(C)CCC(=O)C(C)(C)[C@@H]5CC[C@]43C)[C@H]2[C@H]1OC(=O)C(F)(F)F | 15700 nM | 30.9 µM | 13.2 µM | 27.8 µM | 20.3 µM | 83.5 µM | 10.4 µM | 24.4 µM | 5020 nM | 25.4 µM | 12.3 µM | 26.2 µM | 12.4 µM | 26.4 µM | 15.7 µM | 30.7 µM | 14.6 µM | 30.1 µM | 3840 nM | 23.9 µM
4 | CC(C)CC(=O)CC(O)C(Cl)(Cl)Cl (stereo not given) |  | > 100 µM |  | > 100 µM |  | > 100 µM |  | > 100 µM |  | > 100 µM |  | > 100 µM |  | > 100 µM |  | > 100 µM |  | > 100 µM |  | > 100 µM
5 | O=C(CC(=O)c1ccccc1NC1=Cc2ccccc2C(=O)C1=O)C(=O)NC1=C(Cl)C(=O)c2ccccc2C1=O |  | 30.3 µM |  | 17.9 µM |  | 5.64 µM |  | 15.6 µM |  | 7.32 µM |  | 7 µM |  | 7.05 µM |  | 12.6 µM |  | 11.7 µM |  | 30.6 µM
6 | CC(C)[C@@H](CS(=O)(=O)C(C)C)N1C(=O)[C@@](C)(CC(=O)O)C[C@H](c2cccc(Cl)c2)[C@H]1c1ccc(Cl)cc1 | 537 nM | 16.8 µM | 17.2 µM | 56.7 µM | 17.1 µM | 72.1 µM | 16 µM | > 51.6 µM | 282 nM | 3.52 µM | 24.7 µM | > 100 µM | 12.4 µM | 33 µM | 25.7 µM | > 100 µM | 9.09 µM | 33.2 µM | 7910 nM | > 92 µM
